Experimental data: patent US6716866B2, “Aryl-benzimidazole compounds having antiinfective activity” (GeneSoft Pharmaceuticals, Inc., priority 2001, dated 2004)

Tests used:
Assay type in all cases: cell-based
[1] = system: E. faecium ATCC 51559; experiment: MIC against drug-resistant bacteria, E. faecium ATCC 51559; settings: organism A = E. faecium ATCC 51559, vancomycin resistant strain (VRE)
Protocol: (§1) Compounds according to this invention were screened for their in vitro activities against selected species of bacteria and fungi. The minimal inhibition concentration (MIC) of these compounds was determined using the National Committee for Clinical Laboratory Standards (NCCLS) broth microdilution assay in microtiter plates, as set forth in: (1) the guidelines of the National Committee for Clinical Laboratory Standards (NCCLS) Document M7-A4 (NCCLS, 1997); (2) the guidelines of the National Committee for Clinical Laboratory Standards (NCCLS) Document M11-A4 (NCCLS, 1997); and (3) the guidelines and reference method of the National Committee for Clinical Laboratory Standards (NCCLS) Document M27-T (NCCLS, 1995). For antifungal essays, the method recommended in Murray, PR., 1995 Manual of Clinical Microbiology (ASM Press, Washington, D.C.), was employed.
(§2) Further, compounds (I) are effective against drug-resistant bacteria, as evidenced by the data in Table 2 below:
(§3) ATCC 27660 and ATCC 33591 are methycillin resistant strains of S. aureus (MRSA's). ATCC 51559 is a vancomycin resistant strain of E. faecium (VRE). ATCC 12228 is a methycillin resistant strain of S. epidermis (MRSE). ATCC 51422 is a penicillin resistant strain of S. pneumoniae.

[2] = system: S. aureus ATCC 27660; experiment: MIC against drug-resistant bacteria, S. aureus ATCC 27660; settings: organism B = S. aureus ATCC 27660, methycillin resistant strain (MRSA)
Protocol: as §1, §2, §3

[3] = system: S. epidermis ATCC 12228; experiment: MIC against drug-resistant bacteria, S. epidermis ATCC 12228; settings: organism D = S. epidermis ATCC 12228, methycillin resistant strain (MRSE)
Protocol: as §1, §2, §3

[4] = system: S. aureus ATCC 33591; experiment: MIC against drug-resistant bacteria, S. aureus ATCC 33591; settings: organism C = S. aureus ATCC 33591, methycillin resistant strain (MRSA)
Protocol: as §1, §2, §3

[5] = system: S. pneumoniae ATCC 51422; experiment: MIC against drug-resistant bacteria, S. pneumoniae ATCC 51422; settings: organism E = S. pneumoniae ATCC 51422, penicillin resistant strain
Protocol: as §1, §2, §3

Row | Compound | Minimum Inhibitoty Concentration (MIC) [1] | Minimum Inhibitoty Concentration (MIC) [2] | Minimum Inhibitoty Concentration (MIC) [3] | Minimum Inhibitoty Concentration (MIC) [4] | Minimum Inhibitoty Concentration (MIC) [5]
1 | Cn1cc(NC(=O)c2sc3ccccc3c2Cl)cc1C(=O)Nc1cc(-c2nc3ccc(C(=O)NCCN4CCCCC4)cc3[nH]2)n(C)c1 [Compound I-24] |  | +++ (MIC ≦4) |  |  | 
2 | Cn1cc(NC(=O)c2ccc(Cl)cc2F)cc1C(=O)Nc1cc(-c2nc3ccc(C(=O)NCCN4CCOCC4)cc3[nH]2)n(C)c1 [Compound I-13] | +++ (MIC ≦4) | +++ (MIC ≦4) | +++ (MIC ≦4) | +++ (MIC ≦4) | +++ (MIC ≦4)
3 | Cn1cc(NC(=O)c2sccc2Cl)cc1C(=O)Nc1cc(-c2nc3ccc(C(=O)NCCN4CCCCC4)cc3[nH]2)n(C)c1 [Compound I-36] | +++ (MIC ≦4) | +++ (MIC ≦4) | +++ (MIC ≦4) | +++ (MIC ≦4) | +++ (MIC ≦4)
4 | CCN(CC)CCCNC(=O)c1ccc2nc(-c3cc(NC(=O)c4cc(NC(=O)c5cc6ccccc6cn5)cn4C)cn3C)[nH]c2c1 [Compound I-37] |  | +++ (MIC ≦4) |  | +++ (MIC ≦4) | 
5 | CCN(CC)CCNC(=O)c1ccc2nc(-c3cc(NC(=O)c4cc(NC(=O)c5sccc5Cl)cn4C)cn3C)[nH]c2c1 [Compound I-40] | +++ (MIC ≦4) | +++ (MIC ≦4) | +++ (MIC ≦4) | +++ (MIC ≦4) | +++ (MIC ≦4)
6 | Cn1cc(NC(=O)c2ccc3nc(-c4cc(NC(=O)c5ccc(Cl)cc5F)cn4C)[nH]c3c2)cc1C(=O)NCCN1CCCCC1 [Compound I-28] | +++ (MIC ≦4) | +++ (MIC ≦4) | +++ (MIC ≦4) |  | 
7 | Cn1cc(NC(=O)c2ccc(Cl)cc2F)cc1C(=O)Nc1cc(-c2nc3ccc(C(=O)NCCN4CCCCC4)cc3[nH]2)n(C)c1 [Compound I-15] | +++ (MIC ≦4) | +++ (MIC ≦4) | +++ (MIC ≦4) | +++ (MIC ≦4) | +++ (MIC ≦4)
8 | Cn1cc(NC(=O)c2ccc3nc(-c4cc(NC(=O)c5cc6ccccc6cn5)cn4C)[nH]c3c2)cc1C(=O)NCCN1CCCCC1 [Compound I-22] | +++ (MIC ≦4) | +++ (MIC ≦4) | +++ (MIC ≦4) | +++ (MIC ≦4) | +++ (MIC ≦4)
9 | C[C@@H]1CN(CCNC(=O)c2ccc3nc(-c4cc(NC(=O)c5cc(NC(=O)c6sc7ccccc7c6Cl)cn5C)cn4C)[nH]c3c2)C[C@H](C)O1 [Compound I-26] | +++ (MIC ≦4) | +++ (MIC ≦4) | +++ (MIC ≦4) | + (MIC from 12 to 32, inclusive) | +++ (MIC ≦4)
10 | Cn1cc(NC(=O)c2cc3ccccc3cn2)cc1C(=O)Nc1cc(-c2nc3ccc(C(=O)NCCN4CCC(O)CC4)cc3[nH]2)n(C)c1 [Compound I-32] | +++ (MIC ≦4) | +++ (MIC ≦4) | +++ (MIC ≦4) | +++ (MIC ≦4) | +++ (MIC ≦4)
11 | CN(C)CCCNC(=O)c1ccc2nc(-c3cc(NC(=O)c4cc(NC(=O)c5cc6ccccc6cn5)cn4C)cn3C)[nH]c2c1 [Compound I-33] | +++ (MIC ≦4) | +++ (MIC ≦4) | +++ (MIC ≦4) | +++ (MIC ≦4) | +++ (MIC ≦4)
12 | C[C@@H]1CN(CCNC(=O)c2ccc3nc(-c4cc(NC(=O)c5cc(NC(=O)c6cc7ccccc7cn6)cn5C)cn4C)[nH]c3c2)C[C@H](C)O1 [Compound I-29] | +++ (MIC ≦4) | +++ (MIC ≦4) | +++ (MIC ≦4) | +++ (MIC ≦4) | +++ (MIC ≦4)
13 | CCN(CC)CCNC(=O)c1ccc2nc(-c3cc(NC(=O)c4cc(NC(=O)c5sc6ccccc6c5Cl)cn4C)cn3C)[nH]c2c1 [Compound I-25] |  | +++ (MIC ≦4) |  |  | 
14 | CCN(CC)CCNC(=O)c1ccc2nc(-c3cc(NC(=O)c4cc(NC(=O)c5cc6ccccc6cn5)cn4C)cn3C)[nH]c2c1 [Compound I-27] | +++ (MIC ≦4) | +++ (MIC ≦4) | +++ (MIC ≦4) |  | 
15 | Cn1cc(NC(=O)c2ccc3nc(-c4cc(NC(=O)c5cc6ccccc6cn5)cn4C)[nH]c3c2)cc1C(=O)NCCN1CCOCC1 [Compound I-31] | +++ (MIC ≦4) | +++ (MIC ≦4) | +++ (MIC ≦4) | +++ (MIC ≦4) | +++ (MIC ≦4)
16 | Cn1cc(NC(=O)c2sc3ccccc3c2Cl)cc1C(=O)Nc1cc(-c2nc3ccc(C(=O)NCCN4CCSCC4)cc3[nH]2)n(C)c1 [Compound I-23] | +++ (MIC ≦4) | +++ (MIC ≦4) | +++ (MIC ≦4) | ++ (MIC between 4 and 12) | +++ (MIC ≦4)
17 | COCn1cc(NC(=O)c2ccc3nc(-c4cc(NC(=O)c5sccc5Cl)cn4C)[nH]c3c2)cc1C(=O)NCCN1CCSCC1 [Compound I-34] |  |  | +++ (MIC ≦4) | +++ (MIC ≦4) | 

The next lines start with the values.

Row | Minimum Inhibitoty Concentration (MIC) [1] | Minimum Inhibitoty Concentration (MIC) [2] | Minimum Inhibitoty Concentration (MIC) [3] | Minimum Inhibitoty Concentration (MIC) [4] | Minimum Inhibitoty Concentration (MIC) [5] | Compound
18 | +++ (MIC ≦4) | +++ (MIC ≦4) | +++ (MIC ≦4) |  |  | Cn1cc(NC(=O)c2cc3ccccc3cn2)cc1C(=O)Nc1cc(-c2nc3ccc(C(=O)NCCN4CCSCC4)cc3[nH]2)n(C)c1 [Compound I-30]
19 | +++ (MIC ≦4) | +++ (MIC ≦4) | +++ (MIC ≦4) | +++ (MIC ≦4) | +++ (MIC ≦4) | Cn1cc(NC(=O)c2ccc(F)cc2F)cc1C(=O)Nc1cc(-c2nc3ccc(C(=O)NCCN4CCCCC4)cc3[nH]2)n(C)c1 [Compound I-21]
20 | +++ (MIC ≦4) | +++ (MIC ≦4) | +++ (MIC ≦4) | +++ (MIC ≦4) | +++ (MIC ≦4) | Cn1cc(NC(=O)c2ccc3nc(-c4cc(NC(=O)c5ccc(F)cc5F)cn4C)[nH]c3c2)cc1C(=O)NCCN1CCCCC1 [Compound I-35]
21 |  | +++ (MIC ≦4) |  |  |  | CCOC(=O)c1ccc2nc(-c3cc(NC(=O)c4cc(NC(=O)c5ccc(F)cc5NCCN5CCCCC5)cn4C)cn3C)[nH]c2c1 [Compound I-18]
22 | +++ (MIC ≦4) | +++ (MIC ≦4) | +++ (MIC ≦4) | +++ (MIC ≦4) | +++ (MIC ≦4) | Cn1cc(NC(=O)c2ccc(F)cc2F)cc1C(=O)Nc1cc(-c2nc3ccc(C(=O)NCCN4CCSCC4)cc3[nH]2)n(C)c1 [Compound I-20]
23 | +++ (MIC ≦4) | +++ (MIC ≦4) | +++ (MIC ≦4) | +++ (MIC ≦4) | +++ (MIC ≦4) | Cn1cc(NC(=O)c2ccc3nc(-c4cc(NC(=O)c5ccc(F)cc5F)cn4C)[nH]c3c2)cc1C(=O)NCCN1CCOCC1 [Compound I-39]
24 |  | + (MIC from 12 to 32, inclusive) |  |  |  | CCOC(=O)c1ccc2nc(-c3cc(NC(=O)c4cc(NC(=O)c5ccc(F)cc5NCCN5CCOCC5)cn4C)cn3C)[nH]c2c1 [Compound I-16]
25 | +++ (MIC ≦4) | +++ (MIC ≦4) | +++ (MIC ≦4) | +++ (MIC ≦4) | +++ (MIC ≦4) | Cn1cc(NC(=O)c2sccc2Cl)cc1C(=O)Nc1cc(-c2nc3ccc(C(=O)NCCN4CCSCC4)cc3[nH]2)n(C)c1 [Compound I-38]
26 |  | +++ (MIC ≦4) |  |  |  | CCOC(=O)c1ccc2nc(-c3cc(NC(=O)c4cc(NC(=O)c5ccc(F)cc5NCCN5CCSCC5)cn4C)cn3C)[nH]c2c1 [Compound I-17]
